Measurements published in the supplement of paper PMC11451515.

System: P12-Ichikawa
Experiment: cell viability relative to DMSO control; higher = less cytotoxic
Conditions: 48 h
Outline: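 NOMO1 or SEM (500 cells/well) or P12-Ichikawa (1000 cells/well) leukemia cells were adapted for at least four passages in each medium. They were seeded in 1536-well plates (5 μl) and pin-dosed with library compounds in DMSO over an 11-point threefold series, 47 μM to 0.79 nM. CellTiter-Glo One luminescence was read after 48 h at 37°C. Viability is the per-plate percentage relative to DMSO wells, with cell-free wells as background.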

[1] = HPLM + 10% dialyzed FBS, 0.000781 µM
[2] = HPLM + 10% dialyzed FBS, 0.00234 µM
[3] = HPLM + 10% dialyzed FBS, 0.00702 µM
[4] = HPLM + 10% dialyzed FBS, 0.0211 µM
[5] = HPLM + 10% dialyzed FBS, 0.0632 µM
[6] = HPLM + 10% dialyzed FBS, 0.19 µM
[7] = HPLM + 10% dialyzed FBS, 0.569 µM
[8] = HPLM + 10% dialyzed FBS, 1.71 µM
[9] = HPLM + 10% dialyzed FBS, 5.12 µM
[10] = HPLM + 10% dialyzed FBS, 15.4 µM
[11] = HPLM + 10% dialyzed FBS, 46.1 µM
[12] = RPMI 5 mM glucose + 10% FBS, 0.000781 µM
[13] = RPMI 5 mM glucose + 10% FBS, 0.00702 µM
[14] = RPMI 5 mM glucose + 10% FBS, 0.0211 µM
[15] = RPMI 5 mM glucose + 10% FBS, 0.0632 µM
[16] = RPMI 5 mM glucose + 10% FBS, 0.19 µM
[17] = RPMI 5 mM glucose + 10% FBS, 0.569 µM
[18] = RPMI 5 mM glucose + 10% FBS, 1.71 µM
[19] = RPMI 5 mM glucose + 10% FBS, 5.12 µM
[20] = RPMI 5 mM glucose + 10% FBS, 15.4 µM
[21] = RPMI 5 mM glucose + 10% FBS, 46.1 µM
[22] = RPMI 5 mM glucose + 10% dialyzed FBS, 0.000781 µM
[23] = RPMI 5 mM glucose + 10% dialyzed FBS, 0.00234 µM
[24] = RPMI 5 mM glucose + 10% dialyzed FBS, 0.00702 µM
[25] = RPMI 5 mM glucose + 10% dialyzed FBS, 0.0211 µM
[26] = RPMI 5 mM glucose + 10% dialyzed FBS, 0.0632 µM
[27] = RPMI 5 mM glucose + 10% dialyzed FBS, 0.19 µM
[28] = RPMI 5 mM glucose + 10% dialyzed FBS, 0.569 µM
[29] = RPMI 5 mM glucose + 10% dialyzed FBS, 1.71 µM
[30] = RPMI 5 mM glucose + 10% dialyzed FBS, 5.12 µM
[31] = RPMI 5 mM glucose + 10% dialyzed FBS, 15.4 µM
[32] = RPMI 5 mM glucose + 10% dialyzed FBS, 46.1 µM
[33] = RPMI 5 mM glucose + 10% FBS, 0.00234 µM

Row | Compound | cell viability [1] | cell viability [2] | cell viability [3] | cell viability [4] | cell viability [5] | cell viability [6] | cell viability [7] | cell viability [8] | cell viability [9] | cell viability [10] | cell viability [11] | cell viability [12] | cell viability [13] | cell viability [14] | cell viability [15] | cell viability [16] | cell viability [17] | cell viability [18] | cell viability [19] | cell viability [20] | cell viability [21] | cell viability [22] | cell viability [23] | cell viability [24] | cell viability [25] | cell viability [26] | cell viability [27] | cell viability [28] | cell viability [29] | cell viability [30] | cell viability [31] | cell viability [32] | cell viability [33]
1 | COc1cc([C@@H]2c3cc4c(cc3[C@@H](O)C3COC(=O)C32)OCO4)cc(OC)c1O (stereo not given in full) | 86.8% | 92.3% | 88.4% | 9.03% | 95.5% | 38.3% | 9.82% | 8.57% | 5.22% | 5.25% | 4.78% | 80.2% | 92.1% | 10.5% | 102% | 56.8% | 14.4% | 7.77% | 6.85% | 4.81% | 5.33% | 77.1% | 91.5% | 94.6% | 22.6% | 94.5% | 63.7% | 19% | 12.9% | 9.44% | 7.81% | 5.82% | –
2 | Cc1n[nH]c2ccc(-c3cncc(OC[C@@H](N)Cc4c[nH]c5ccccc45)c3)cc12 | – | – | – | – | – | – | – | – | – | – | – | 108% | 100% | 98.9% | 88.5% | 70.2% | 80.3% | 35.5% | 17.8% | 2.32% | 1.05% | 107% | 119% | 105% | 108% | 96.9% | 74.8% | 64% | 38.5% | 27.1% | 2.44% | 1.33% | 114%
3 | CN(C)[C@H]\1[C@@H]2[C@@H](O)[C@H]3\C(=C(O)/[C@]2(O)C(=O)\C(=C1O)C(N)=O)C(=O)C4=C(C=CC=C4O)[C@@]3(C)O | – | – | – | – | – | – | – | – | – | – | – | 130% | 125% | 127% | 127% | 131% | 130% | 106% | 96.1% | 128% | 116% | – | – | – | – | – | – | – | – | – | – | – | 123%
4 | C=C1C(=O)O[C@@H]2[C@H]3O[C@]3(C)CC/C=C(\C)CC[C@@H]12 | 106% | 104% | 114% | 114% | 119% | 124% | 122% | 79.6% | 5.39% | 2.97% | 2.95% | 103% | 117% | 117% | 127% | 127% | 125% | 101% | 13.5% | 3.52% | 2.86% | 105% | 112% | 118% | 125% | 127% | 123% | 121% | 91.8% | 5.63% | 2.98% | 2.57% | 109%
5 | CC1(C)CCC(=C(\C1)C2=CC=C(Cl)C=C2)/CN3CCN(CC3)C4=CC(=C(C=C4)C(=O)N[S+]([O-])(=O)C5=CC=C(NCC6CCOCC6)C(=C5)[N+]([O-])=O)OC7=CN=C8[NH]C=CC8=C7 | 98.6% | 108% | 104% | 102% | 98% | 98.3% | 98.5% | 97.5% | 83.9% | 67% | 49% | 103% | 114% | 104% | 104% | 100% | 99.2% | 89.6% | 96.5% | 81.5% | 68.1% | 100% | 103% | 101% | 105% | 96.3% | 103% | 99% | 90.8% | 96.1% | 78.1% | 65.7% | 106%
6 | CC(C)C[C@@H](C(=O)N[C@H](C(=O)OC1CCCC1)c1ccccc1)[C@H](O)C(=O)NO | 109% | 111% | 112% | 114% | 108% | 108% | 104% | 105% | 95.5% | 86.8% | 59.7% | 103% | 114% | 113% | 107% | 116% | 110% | 93.8% | 89.6% | 69.8% | 37.1% | 112% | 113% | 115% | 116% | 111% | 103% | 110% | 102% | 89% | 89.6% | 35.9% | 119%
7 | CCOC\1=C(/C(=O)NC2=CC=C(OC3=C(Cl)C(=NC=C3)N)C(=C2)F)C(=O)N(\C=C1)C4=CC=C(F)C=C4 | 107% | 110% | 102% | 115% | 104% | 101% | 94.7% | 91.3% | 93.8% | 81.2% | 27.4% | 99.2% | 111% | 98.5% | 102% | 102% | 96.1% | 95.2% | 97.7% | 80.1% | 30.9% | 106% | 101% | 104% | 104% | 102% | 91% | 99.7% | 81.9% | 91.8% | 68.5% | 28.1% | 104%
8 | Oc1ccc(C2CNCCc3c2cc(O)c(O)c3Cl)cc1 (stereo not given) | 92.6% | 92.3% | 86.9% | 97.7% | 92.7% | 98.5% | 92.4% | 95.7% | 96.1% | 100% | 99.4% | 87% | 95.8% | 96.8% | 86.5% | 98.8% | 90.3% | 98% | 96.1% | 103% | 101% | 90.3% | 93.3% | 80.2% | 86.9% | 84.7% | 96.9% | 86.1% | 88.5% | 94.1% | 90% | 92.7% | 98.4%
